Reference: US20240139125A1 (INDUSTRIAL COOPERATION FOUNDATION JEONBUK NATIONAL …, priority 2020, published 2024)

Key:
[1] = test system: tumors derived from MDA-MB-231 cells; assay: Xenograft in nude mice; type: in vivo; conditions: MDA-MB-231 xenograft, 1 mg/kg BIA, 5 days a week, 25 days
Method: FIG. 67C and FIG. 67D show the volume and weight of tumors derived from MDA-MB-231 cells injected into a nude mouse treated with a vehicle or 1 mg/kg BIA. (n=5 mice for each group). Data were expressed as mean±SD. ***p<0.001, ****p<0.0001, followed by binary ANOVA, followed by Bonferroni's post hoc test (C) or two-tailed unpaired t-test (B).
Mice purchased 20-25 g of BALBc/Nude and conducted experiments after 1 week of preliminary breeding to adapt to the laboratory environment. This experiment was approved by the Animal Experiment Ethics Committee of Chonbuk National University (CBNU 201 5-064, CBNU 2016-56) and was carried out according to standard work instructions, and the conditions in the breeding room were kept constant temperature and relative humidity, a 12-hour contrast cycle, and water and feed were freely consumed. Experimental animals are transplanted subcutaneously with 5×10^6 cells per mouse using HT1080 cell line and MDA-MB-231 cell line, and after 7-10 days, mice forming tumor sizes of 100 mm^3 are randomly divided into control and experimental groups. The control group is injected with saline (including 10% DMSO) and the experimental group is injected with 1 mg/kg (10% DMSO) into the abdomen. The drug is given 5 days a week, and repeated for 4 weeks. […] The tumor size was measured with a caliper and calculated using the following formula: […]

[2] = test system: MDA-MB-231; assay: Cell proliferation/viability with BIA, IC50 after 3 days; type: cell-based; conditions: Homo sapiens, 72 h; MDA-MB-231 cells, treatment for 3 days
[3] = test system: PANC-1 cells; assay: Cell viability (crystal violet), BIA versus mTOR inhibitors; type: cell-based; conditions: 10 μM
[4] = test system: HT1080 cells stably overexpressing BI-1; assay: Cell proliferation of BI-1 overexpressing cells with BIA; type: cell-based; conditions: 1 day after treatment
[5] = test system: BAL inflammatory cells; assay: Aspergillus-infected asthmatic mouse model, BAL cells and lung histology; type: in vivo; conditions: asthma-inducing group; BIA 0.1 mg/kg and 0.01 mg/kg, IC87114 1 mg/kg, intratracheal
Source text: FIG. 80A and FIG. 80B show mice that were infected with aspergillus with or without BIA, or IC87114, fixing the tissue to 4% formalin, injecting paraffin to make blocks, and then cutting into 4 μm thick to react to buffer and performing hematoxylin-eosin staining. The observation result (A) and the observation result (B) by PAS staining are shown.
The result is quantified by counting the total number of cells of living BAL fluid, excluding dead cells stained in trypan blue.
A. fumigatus-induced allergic pulmonary inflammation To establish the model, mice were treated with 10 μg of A. fumigatus crude antigen extract (Greer Laboratories, Cat # XPM3D3A4, Lenoir, NC, USA) with fungal substance inactivated. 0.2 ml of incomplete Freund's adjuvant (Sigma-Aldrich, Cat # F5506-6X) in regular saline It was dissolved and mixed, and half of the preparation was deposited in the peritoneal cavity and the rest was delivered subcutaneously. After 2 weeks, mice received 20 μg of A. fumigatus antigen dissolved in normal saline through the intranasal route, after an intranasal attack After 4 days, 20 μg of A. Fumigatus antigen dissolved in normal saline was treated via the endotracheal route. Control mice were administered only saline at the same time point in time through the same route and treated with the same number of conidia. […]

Structure (SMILES): Nc1ccccc1C(=O)/C=C/c1cccc([N+](=O)[O-])c1 [BIA, 2E-1-2-Aminophenyl-3-3-nitrophenyl-2-propen-1-one]
- tumor growth [1]: significantly impaired
- IC50 [2]: 2600 ± 500 nM
- live cells [3]: almost removed live cells
- sensitivity to BIA (cell proliferation) [4]: high sensitivity
- all BAL inflammatory cells [5]: inhibited
